Data set [1] is described as follows: Pharmacokinetic study in plasma and brain. It counts as in vivo, C57BL/6 mice. The following applies: 5 mg/kg, subcutaneous. On the procedure: FIG. 20: Pharmacokinetic study of E55888 and Serodolin. Concentration-time profile of E55888 (reference agonist) and Serodolin in plasma (A) and brain (B) following subcutaneous injection of a unique dose 5 mg/kg of each compound in C57BL/6 mice. Data represent the mean concentration±SEM of n=4 each time point.
The pharmacokinetic study was undertaken to evaluate and compare the quantity of Serodolin and E55888 in plasma and brain samples from C57BL/6 mice (Janvier, Le Genest France) at several time points. Seven weeks old C57BL/6 mice (n=4 animals per group) received by subcutaneous injection a unique dose (5 mg/kg) of Serodolin or E55888 (U103013S, Achemblock). Control group received vehicle (solution of 20% DMSO and 5% Tween 80 diluted in NaCl). […] Blank vehicle mouse brains homogenates and plasma were used to established standard curves of Serodolin or E55888. […] Study samples, brains homogenates and plasma, were prepared for protein precipitation by adding 85 μL of acetonitrile+5-CT to 20 μL of samples. LC-HRMS analysis for PK studies were performed on a maXis Q-TOF mass spectrometer (Bruker, Bremen, Germany) coupled to an U3000 RSLC UHPLC system (Dionex, Germering, Germany). Separation was obtained using an Acquity UPLC BEH C18 column (2.1×50 mm; 1.7 μm) (Waters, Saint-Quentin-en-Yvelines, France) thermostated at 40° C. with a gradient of water (solvent A) and acetonitrile (solvent B), both acidified with 0.1% formic acid at 500 μL/min. […] The samples were randomized prior analysis; 1.25 μL were injected for plasma and 8 μL for brains. […] Area were integrated from extracted ion chromatograms (EIC) of [M+H]+ ions using QuantAnalysis 4.4 software (Bruker) with a tolerance of ±0.005 u.
The pharmacokinetics profile of both compounds were evaluated. The inventors used liquid chromatography tandem mass spectrometry (UPLC-MS/MS) method to perform PK study and measure Serodolin vs E55888 levels in vivo.

In another data set the target is human 5-HT7a receptor (Homo sapiens (Human), UniProt P34969). Kind of data set: Radioligand binding competition, filtration binding assay, 5-HT7a. The conditions noted are these: affinity on 5-HT7 receptor, table of new compounds. On the procedure:
(§1) FIG. 14: Testing of 8 molecules for radioligand binding competition activity on recombinant human 5-HT1A, 5-HT2A, 5-HT2Cedited, 5-HT6, 5-HT7 and D2(long) receptors using filtration binding assays.
(§2) Radioligand Binding experiments were conducted with Epics Therapeutics membrane preparations. Receptor accession numbers, cellular background and reference compounds are shown in this table.
Reference values thus obtained for the test were compared to historical values obtained from the same receptor and used to validate the experimental session. For replicate determinations, the maximum variability tolerated in the test was of +/−20% around the average of the replicates.
(§3) Dose-response data from test compounds were analyzed with XLfit (IDBS) software using nonlinear regression applied to a sigmoidal dose-response model and the following equation: • XL Fit fit Model 203: 4 Parameter Logistic Model • A: Bottom • B: TOP • C: LogEC50 • D: Hill

For data set [2], the system named is mice. Briefly: CFA-induced mechanical hypersensitivity, Von Frey filament test. It counts as in vivo. The conditions noted are these: 5 mg/kg, s.c., 30 minutes.
Procedure: Mechanical hypersensitivity was evaluated after CFA intraplantar injection by using the Von Frey test. […] Mechanical hypersensitivity was performed 24 hrs later (pre-treatment) CFA intraplantar injection into the left hind paw (ipsilateral paw). […] The ligand effects (E55888 or Serodolin) were evaluated 30 min and 24 hrs after in the ipsilateral paw. Data are means±SEM of values obtained in 2 independent experiments (n=8 to 10 per group). ****p<0.0001 ***p<0.001 **p<0.01 *p<0.05. Statistical analysis was done using Kruskal Wallis test.
Von Frey filament test. Before inducing peripheral inflammation, each animal was tested on the left hind paw with Von Frey Filament to determine its basal sensibility level. Then, peripheral inflammation was induced by intraplantar injection of Complete Freund's Adjuvant (CFA-10 μL) (F5881, Sigma) in the left hind paw (ipsilateral paw) and mechanical allodynia was measure (pre-treatment). Mice were divided into two groups, one with E55888 (5 mg/kg) and the other with Serodolin (5 mg/kg) subcutaneous injections in the ipsilateral paw. Both in absence (−) or in presence (+) of the 5-HT7R antagonist SB269960 (5 mg/kg), intraperitoneally, 20 min before the agonist injections (8-10 mice per group).
The inventors wanted to evaluate the effect of Serodolin on mechanical hypersensitivity in comparison with E-55888 after CFA injection.
Data set [3] has as its system mice. Briefly: Tail immersion test (50° C.). The class given is in vivo. The conditions noted are these: 5-HT7R KO mice, subcutaneous. On the procedure:
(A) Experimental protocol summary used. (B) Mice were subcutaneously injected with two different doses of the 5-HT7 receptor agonist Serodolin, 1 mg/kg or 5 mg/kg and 10 min later their tail extremity was immersed in water heated to 50 degrees. […] The effect of injections (Serodolin or E55888) was evaluated at TO, 30 min and 60 min corresponding to 10, 40 and 70 min after compound injections. […] Their tail extremity was immersed in water heated to 50 degrees at TO (E) or 30 min later (F) corresponding to 10 and 40 min after agonist injections. […] Statistical analysis was done using Tukey's multiple comparison test.
Tail immersion test. Nociception was assessed with the tail immersion test, 10 min and 40 min after E55888 (5 mg/kg) or Serodolin (5 mg/kg) tail subcutaneous injections, in the water heated to 50° C. Vehicle (20% DMSO, 5% Tween 80 diluted in PBS solution) was used as a control group. These different groups were intraperitoneally injected (+) or not (−) with the 5-HT7R antagonist SB269960 (5 mg/kg) 10 min before the ligand injection. The tail withdrawal latency (s) was measured for each animal.

Data set [4] addresses human 5-HT2Cedited receptor (Homo sapiens, UniProt P28335). Briefly: Radioligand binding competition, 5-HT2Cedited. The following applies: selectivity panel. On the procedure:
as §1, §2
(§4) The new compounds have been tested by radioligand binding competition activity at the human 5-HT1A (FAST-0500B), 5-HT2A (FAST-0505B), 5-HT2Cedited (FAST-0507B), 5-HT6 (FAST-0509B), 5-HT7a (FAST-05111B) and D2(long) (FAST-0101B) receptors at seven (7) concentrations, in duplicate. […] Reference values thus obtained for the test were compared to historical values obtained from the same receptor and used to validate the experimental session. For replicate determinations, the maximum variability tolerated in the test was of +/−20% around the average of the replicates.
as §3

Data set [5] deals with T1, h5-HT7R (Homo sapiens (Human), UniProt P34969). Kind of data set: cAMP accumulation (LANCE cAMP detection kit) in HEK-293 cells stably expressing h5-HT7R. It counts as cell-based. The conditions noted are these: tested alone. On the procedure: (B) HEK-293 cells stably expressing h5-HT7R were stimulated with 10 nM of 5-CT and increasing concentrations of products for one hour. After cell lysis, cAMP production was quantified by a LANCE cAMP detection kit (Perkin Elmer). […] Data points represent the means±SEM from three independent experiments performed in triplicate. The EC50 and IC50 for each drug was determined using GraphPad Prism software.
cAMP accumulation was measured with a LANCE™ cAMP detection kit (Perkin-Elmer Life Sciences, Boston, MA, USA). 12 h before experiment cells were starved. Forty-eight h after transfection, cells were harvested in Hank's balanced salt solution (HBSS) containing 5 mM HEPES, 1 mM isobutylmethylxanthine (IBMX) and 0.1% BSA, PH 7.4. After centrifugation (1000×g, 5 min), cells were resuspended in the same buffer (2×10^6 per ml). The ALEXA™ fluor 647 anti-cAMP antibody solution (1 μl) was added to the cell suspension (100 μl) and 5 μl aliquots of the mixture were dispensed in white 384-well microtiter plates (Optiplate, Perkin Elmer). The cells were then stimulated with different drugs. After 1 h incubation at room temperature in the dark, lysis buffer (0.35% Triton X-100, 10 mM CaCl2, 50 mM HEPES) containing LANCE EU-W8044 labeled streptavidin and biotinylated-cAMP was added to the cells (10 μL per well). After 2 h incubation at room temperature in the dark, the plates were read on a VictorV™ microplate reader (Perkin-Elmer Life Sciences). Concentration/response curves were analyzed using Prism 4 software.
HEK-293 fibroblast stably expressing 5-HT7 receptor were used to compare the effect of different 5-HT7R ligands on the classical Gαs-mediated activation of AC pathway. It was decided to evaluate the lead compounds from two series of ligands, Serodolin and MOA-51 (FIG. 1A).

The target in a further data set is human 5-HT1A receptor (Homo sapiens (Human), UniProt P08908). Kind of data set: Radioligand binding competition, 5-HT1A. The following applies: selectivity panel. On the procedure:
as §1, §2, §4, §3

In a further data set the target is human 5-HT2A receptor (Homo sapiens (Human), UniProt P28223). Kind of data set: Radioligand binding competition, 5-HT2A. The following applies: selectivity panel. On the procedure: as §1, §2, §4, §3
The target in data set [6] is T1, h5-HT7R. Briefly: AlphaScreen SureFire phospho-ERK and phospho-c-SRC assays. The class given is cell-based. The following applies: pretreatment of cells, Serodolin stimulation. On the procedure: FIG. 7: Serodolin induced ERK phosphorylation is dependent on c-SRC activation and requires proline-rich regions on 5-HT7R. […] Cells were lysed, and western blot analysis was performed. (B) The phosphorylation of ERK1/2 as well as phosphorylation of c-SRC were quantified on the same cell lysates using the AlphaScreen assays. Means±SEM of values from three experiments performed in triplicate. (C) The PXXP motif in the C-terminal tail of 5-HT7R has been mutated as described in the upper panel. The corresponding constructs encoding HA-tagged 5-HT7 receptor were transfected in HEK-293 cells as indicated (MutT1, mutT2 and mutT3), then the effect of 5-CT and Serodolin have been evaluated on ERK1/2 and c-SRC activation by Western blot analysis. Representative immunoblots of three independent experiments are illustrated.
The AlphaScreen SureFire phospho-ERK and phosphor-c-SRC assays (PerkinElmer) were used to quantify pERK1/2 and pc-SRC from HEK-293 cell lysates according to the manufacturer's instructions.
(2018) V1b vasopressin receptor trafficking and signaling: Role of arrestins, G proteins and Src kinase. Traffic 19, 58-82; Rey, A., Manen, D., Rizzoli, R., Caverzasio, J., and Ferrari, S. L. (2006) Proline-rich motifs in the parathyroid hormone (PTH)/PTH-related protein receptor C terminus mediate scaffolding of c-Src with beta-arrestin2 for ERK1/2 activation. J Biol Chem 281, 38181-38188). […] To determine whether one of these mechanisms was required for Serodolin-induced ERK phosphorylation, the inventors first evaluated the sensitivity of this activation to the c-SRC-specific tyrosine kinase inhibitor PP2. […]
Background: In Alpha technology, singlet oxygen from a donor bead excites a nearby acceptor bead.

The record followed here is US20240199555A1, “APPLICATIONS OF BIASED LIGANDS OF THE SEROTONIN 5-HT7 RECEPTOR FOR THE TREATMENT OF PAIN, MULTIPLE SCLEROSIS AND THE CONTROL OF THERMOREGULATION” (Centre National de la Recherche Scientifique, priority 2021, published 2024).

human 5-HT7a receptor, sequence (P34969 other isoform, or with tags, fused parts or gaps): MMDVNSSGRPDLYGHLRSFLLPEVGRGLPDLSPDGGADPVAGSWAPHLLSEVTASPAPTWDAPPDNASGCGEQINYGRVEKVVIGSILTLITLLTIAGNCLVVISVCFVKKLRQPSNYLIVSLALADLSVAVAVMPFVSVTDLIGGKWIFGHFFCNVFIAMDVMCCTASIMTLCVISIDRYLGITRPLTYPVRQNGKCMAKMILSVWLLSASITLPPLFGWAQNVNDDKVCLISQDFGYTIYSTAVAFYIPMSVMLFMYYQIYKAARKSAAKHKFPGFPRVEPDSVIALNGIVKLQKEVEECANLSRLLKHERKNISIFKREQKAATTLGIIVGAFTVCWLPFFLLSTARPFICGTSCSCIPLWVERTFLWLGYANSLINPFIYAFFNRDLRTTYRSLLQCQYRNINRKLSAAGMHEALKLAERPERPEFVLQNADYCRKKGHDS
T1 sequence (P34969 1-432): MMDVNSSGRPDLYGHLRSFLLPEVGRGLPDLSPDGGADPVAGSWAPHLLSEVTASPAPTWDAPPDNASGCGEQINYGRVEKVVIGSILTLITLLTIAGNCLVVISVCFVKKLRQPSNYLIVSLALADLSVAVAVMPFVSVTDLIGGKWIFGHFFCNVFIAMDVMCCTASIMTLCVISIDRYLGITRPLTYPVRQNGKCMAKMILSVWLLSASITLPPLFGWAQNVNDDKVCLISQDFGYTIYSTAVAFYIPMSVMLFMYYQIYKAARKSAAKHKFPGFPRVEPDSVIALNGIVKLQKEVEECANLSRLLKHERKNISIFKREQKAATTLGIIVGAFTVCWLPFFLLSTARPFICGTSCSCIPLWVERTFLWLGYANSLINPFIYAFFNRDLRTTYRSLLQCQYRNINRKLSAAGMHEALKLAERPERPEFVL
human 5-HT2Cedited receptor, sequence (P28335 33-458 limits assumed): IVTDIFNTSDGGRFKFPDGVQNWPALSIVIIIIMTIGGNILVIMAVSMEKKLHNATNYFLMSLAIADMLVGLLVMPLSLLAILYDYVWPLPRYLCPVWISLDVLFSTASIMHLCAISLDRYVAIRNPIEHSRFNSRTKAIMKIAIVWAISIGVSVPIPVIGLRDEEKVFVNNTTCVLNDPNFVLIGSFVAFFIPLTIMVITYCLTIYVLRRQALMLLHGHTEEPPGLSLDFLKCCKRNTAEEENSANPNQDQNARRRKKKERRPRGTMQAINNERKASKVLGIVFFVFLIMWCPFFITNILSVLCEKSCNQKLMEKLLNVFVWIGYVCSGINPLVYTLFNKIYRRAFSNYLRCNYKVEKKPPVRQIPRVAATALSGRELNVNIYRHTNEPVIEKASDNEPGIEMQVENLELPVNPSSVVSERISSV
human 5-HT1A receptor, sequence (P08908 whole entry): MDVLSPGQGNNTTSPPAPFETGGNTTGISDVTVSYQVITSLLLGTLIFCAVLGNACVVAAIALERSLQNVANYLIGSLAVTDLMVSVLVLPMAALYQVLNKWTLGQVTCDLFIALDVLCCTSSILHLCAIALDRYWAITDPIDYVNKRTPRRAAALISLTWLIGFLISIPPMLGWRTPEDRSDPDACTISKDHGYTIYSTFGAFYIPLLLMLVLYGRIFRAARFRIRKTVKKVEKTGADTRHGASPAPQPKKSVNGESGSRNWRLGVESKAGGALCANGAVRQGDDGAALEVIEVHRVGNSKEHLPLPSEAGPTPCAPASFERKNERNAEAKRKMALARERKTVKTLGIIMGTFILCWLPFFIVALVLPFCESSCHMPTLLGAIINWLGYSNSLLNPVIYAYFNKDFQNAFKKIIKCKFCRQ
human 5-HT2A receptor, sequence (P28223 whole entry): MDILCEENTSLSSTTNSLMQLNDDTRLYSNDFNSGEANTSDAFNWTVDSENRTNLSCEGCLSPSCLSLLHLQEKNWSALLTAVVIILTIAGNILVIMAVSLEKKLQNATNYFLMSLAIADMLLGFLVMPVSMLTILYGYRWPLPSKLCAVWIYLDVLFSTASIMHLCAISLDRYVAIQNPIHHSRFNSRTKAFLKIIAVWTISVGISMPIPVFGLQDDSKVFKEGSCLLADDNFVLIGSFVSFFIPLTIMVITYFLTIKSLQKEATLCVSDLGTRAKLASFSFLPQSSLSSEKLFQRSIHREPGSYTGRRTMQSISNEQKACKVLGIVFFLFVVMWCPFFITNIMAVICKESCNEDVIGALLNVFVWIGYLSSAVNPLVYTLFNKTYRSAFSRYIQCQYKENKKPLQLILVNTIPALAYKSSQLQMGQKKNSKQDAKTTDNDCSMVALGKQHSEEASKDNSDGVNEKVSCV

With `Cc1nn(C)c(C)c1-c1cccc(CCN(C)C)c1` [E55888, reference compound], the “passage of the brain blood barrier” value in data set [1] is given as “ability to pass the brain blood barrier”. In addition, the “time of maximum of detection” value in data set [1] (both in plasma and brain) fell in the range of 15 to 30 min. The “maximum of detection in brain” value in data set [1] (brain) is 1.4 ± 0.2 µg/mL. The “maximum of detection in plasma” value in [1] (plasma) was determined as 6.1 ± 0.5 µg/mL. Moreover, the “time after which eliminated / undetectable” value in [1] (plasma and brain) amounted to 120 min. On human 5-HT7a receptor, the concentration for half-maximal inhibition (IC50) came to 2.68 nM and the Ki was determined as 1.88 nM. For the same compound, in the data set with mice [2], the “CFA-induced mechanical hypersensitivity, 30 minutes after administration” value is reported as “reversed the CFA-induced mechanical hypersensitivity”. Besides, in the data set on mice [3], the “anti-nociceptive effect in 5-HT7R KO mice” value is “did not exert any anti-nociceptive effect”.

Take `O=C(c1ccc(F)cc1)C1CCN(CCCCn2c(=O)[nH]c3ccccc32)CC1` [MOA51]: the half-maximal inhibitory concentration (IC50) in [4] (read-out: RLB 5-HT2Cedited IC50) was 699 nM; at human 5-HT1A receptor (read-out: RLB 5-HT1A IC50), 885 nM; at human 5-HT2A receptor (read-out: RLB 5-HT2A IC50), 3.29 nM; at human 5-HT7a receptor it was 0.29 nM. For the same compound, the Ki in [4] (read-out: RLB 5-HT2Cedited Ki) stood at 115 nM; on human 5-HT1A receptor (read-out: RLB 5-HT1A Ki), 442 nM; at human 5-HT2A receptor (read-out: RLB 5-HT2A Ki), 0.54 nM; at human 5-HT7a receptor, 0.2 nM. At h5-HT7R [5], the “inhibition of cAMP production when tested alone (inverse agonist effect)” value is “around 75%”.

In the case of `CC(C)(C)n1nc(-c2ccc(Cl)cc2)c2c(N)ncnc21` [PP2], at h5-HT7R [6], the “block of Serodolin-induced ERK phosphorylation” value stood at 99% and the “block of Serodolin-induced c-SRC phosphorylation” value was determined as 100%.

On to `Nc1ncnc2c1cnn2-c1ccccc1` [PP3], for which the “block of Serodolin-induced ERK phosphorylation” value on h5-HT7R [6] was “inactive”.

The IC50 is the concentration at which inhibition is half-maximal. For orientation: Ki means the dissociation constant of the complex between target and ligand, obtained from inhibition or displacement.
